Among the data in article doi:10.1101/041947v2 (biorxiv, 2016) are IC50 values, retold here.

Molecules are shown by their SMILES.

The test system of this assay is A549. The assay can be described thus: cells. To be noted: Homo sapiens, A549, read-out: IC50 nM.

Regarding `CC[C@]1(O)C[C@@H]2CN(CCc3c([nH]c4ccccc34)[C@@](C(=O)OC)(c3cc4c(cc3OC)N(C)[C@H]3[C@@](O)(C(=O)OC)[C@H](OC(C)=O)[C@]5(CC)C=CCN6CC[C@]43[C@@H]65)C2)C1` [Vinblastine], the IC50 (commonly the concentration needed to halve the response being measured) is 4.2 nM.
